# Results as given in patent US12018009B2, “ALDH-2 inhibitor compounds and methods of use” (Amygdala Neurosciences, Inc., priority 2022, dated 2024).
# Assays:
# [1] = O'Malley et al. 2021; cited from earlier work
# [2] = biological target: T1, MAO-A (Homo sapiens, UniProt P21397); assay: MAO-A inhibition assay (luminogenic substrate); format: biochemical; details: 20 min pre-incubation; 10 μM = highest concentration tested; read-out: Enzymatic Assays IC50 MAO-A
# T1 sequence (P21397 1-527): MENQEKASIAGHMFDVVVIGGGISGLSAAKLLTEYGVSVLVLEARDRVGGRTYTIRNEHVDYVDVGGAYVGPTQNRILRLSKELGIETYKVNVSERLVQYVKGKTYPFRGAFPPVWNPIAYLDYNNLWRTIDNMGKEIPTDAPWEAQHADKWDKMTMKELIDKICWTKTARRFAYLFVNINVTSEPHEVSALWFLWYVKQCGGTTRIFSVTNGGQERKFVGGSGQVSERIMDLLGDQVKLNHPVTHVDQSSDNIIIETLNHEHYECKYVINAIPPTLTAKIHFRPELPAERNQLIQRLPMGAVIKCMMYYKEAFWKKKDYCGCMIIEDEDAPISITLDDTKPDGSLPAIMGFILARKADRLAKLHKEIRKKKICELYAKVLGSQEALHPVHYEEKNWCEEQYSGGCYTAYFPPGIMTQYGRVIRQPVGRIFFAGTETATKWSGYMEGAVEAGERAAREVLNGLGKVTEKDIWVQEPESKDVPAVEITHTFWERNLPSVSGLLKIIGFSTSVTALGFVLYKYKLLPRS
# Experimental: (§1) D. MAO-A and MAO-B inhibition assays: MAO assays included luminogenic MAO substrate, reaction buffers, Luciferin Detection, and a reconstitution buffer with esterase. The MAO reaction mixture used in the assay included microsome contained MAO-A (2 μg) or MAO-B (10 μg), 160 μM substrate for MAO-A or 16 μM substrate for MAO-B, MAO-A buffer (100 mM Hepes buffer, pH 7.5, 5% glycerol) or MAO-B buffer (100 mM Hepes, pH 7.5, 5% glycerol, 10% dimethyl sulfoxide) in a final volume of 30 μL. After 20 minutes of pre-incubation of the MAO-A or MAO-B enzyme with the test ALDH-2 inhibitor compound, the reaction was initiated by adding enzyme substrate and the […] reaction was allowed to proceed for 60 minutes. Reconstituted Luciferin Detection Reagent (30 μL) was then added is added to simultaneously stop the MAO reaction and convert the methyl ester derivative to luciferin and produce light. The amount of light produced is directly proportional to the activity of MAO. The mixtures were further incubated for 20 minutes and activity of the enzyme was determined using Perkin-Elmer Envision Reader.
# [3] = biological target: T2, recombinant human ALDH-2 (Homo sapiens, UniProt P05091); assay: ALDH-2 inhibition assay; format: biochemical; details: 60 min pre-incubation; 10 μM = highest concentration tested; read-out: Enzymatic Assays IC50 ALDH2
# T2 sequence (P05091 18-517): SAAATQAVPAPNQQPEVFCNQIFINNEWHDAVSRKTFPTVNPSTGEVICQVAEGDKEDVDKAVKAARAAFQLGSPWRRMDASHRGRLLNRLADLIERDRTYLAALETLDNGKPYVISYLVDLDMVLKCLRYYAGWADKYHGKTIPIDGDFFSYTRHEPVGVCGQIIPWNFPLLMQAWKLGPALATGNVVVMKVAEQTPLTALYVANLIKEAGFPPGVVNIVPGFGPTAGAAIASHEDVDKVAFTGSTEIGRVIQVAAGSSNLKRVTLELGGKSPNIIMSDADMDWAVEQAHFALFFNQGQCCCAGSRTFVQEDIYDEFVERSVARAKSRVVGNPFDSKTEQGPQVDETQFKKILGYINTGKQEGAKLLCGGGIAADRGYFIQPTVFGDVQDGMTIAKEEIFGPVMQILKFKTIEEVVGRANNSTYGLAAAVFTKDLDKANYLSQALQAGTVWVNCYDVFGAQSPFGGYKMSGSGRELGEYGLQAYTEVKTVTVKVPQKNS
# Experimental: A. ALDH-2 inhibition assay: The ALDH-2 reaction mixture used in the assay contained 125 μM formaldehyde, 75 μM NAD+, 20 mM NaCl, 10 mM MgCl2, and 20 nM recombinant human ALDH-2 in 50 mM Hepes buffer, pH 7.5 in a final volume of 10 μL using 384-well Corning 3820 plates. After 60 min of pre-incubation of the test ALDH-2 inhibitor compound with ALDH-2, the reaction was started by adding NAD+ and formaldehyde and the assay reaction mixture was allowed to proceed for 60 minutes. Activity of the ALDH-2 enzyme was determined by monitoring NADH formation using Perkin-Elmer Envision Reader with excitation and emission wavelengths set at 340 and 460 nm, respectively.
# [4] = biological target: T3, recombinant human ALDH-1 (Homo sapiens, UniProt P00352); assay: ALDH-1 inhibition assay; format: biochemical; details: 60 min pre-incubation; 10 μM = highest concentration tested; read-out: Enzymatic Assays IC50 ALDH-1
# T3 sequence (P00352 1-501): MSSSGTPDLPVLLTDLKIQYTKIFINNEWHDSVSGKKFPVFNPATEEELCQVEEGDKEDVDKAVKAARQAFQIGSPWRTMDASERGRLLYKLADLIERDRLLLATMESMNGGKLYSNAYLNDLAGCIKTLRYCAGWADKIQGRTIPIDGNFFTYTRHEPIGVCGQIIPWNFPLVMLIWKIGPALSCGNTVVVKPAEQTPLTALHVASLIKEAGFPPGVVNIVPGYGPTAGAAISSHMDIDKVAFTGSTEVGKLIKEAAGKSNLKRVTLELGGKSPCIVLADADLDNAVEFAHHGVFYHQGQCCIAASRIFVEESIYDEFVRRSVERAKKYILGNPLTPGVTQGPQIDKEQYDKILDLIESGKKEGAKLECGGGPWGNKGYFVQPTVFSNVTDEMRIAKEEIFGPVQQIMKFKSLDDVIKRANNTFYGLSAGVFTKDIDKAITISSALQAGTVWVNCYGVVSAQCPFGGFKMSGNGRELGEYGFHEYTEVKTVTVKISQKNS
# Experimental: B. ALDH-1 inhibition assay: The ALDH-1 reaction mixture used in the assay contained 100 μM formaldehyde, 2.5 mM NAD+, 20 mM NaCl, 10 mM MgCl2, 1 mM dithiothreitol (DTT; reducing agent), and 50 nM recombinant human ALDH-1 in 50 mM Hepes buffer, pH 7.5 in a final volume of 10 μL using 384-well Corning 3820 plates. After 60 min of pre-incubation of the test ALDH-2 inhibitor compound with ALDH-1, the reaction was started by adding NAD+ and formaldehyde and the assay reaction mixture was allowed to proceed for 60 minutes. Activity of the ALDH-1 enzyme was determined by monitoring NADH formation using Perkin-Elmer Envision Reader with excitation and emission wavelengths set at 340 and 460 nm, respectively.
# [5] = biological target: T4, MAO-B (Homo sapiens, UniProt P27338); assay: MAO-B inhibition assay (luminogenic substrate); format: biochemical; details: 20 min pre-incubation; 10 μM = highest concentration tested; read-out: Enzymatic Assays IC50 MAO-B
# T4 sequence (P27338 1-520): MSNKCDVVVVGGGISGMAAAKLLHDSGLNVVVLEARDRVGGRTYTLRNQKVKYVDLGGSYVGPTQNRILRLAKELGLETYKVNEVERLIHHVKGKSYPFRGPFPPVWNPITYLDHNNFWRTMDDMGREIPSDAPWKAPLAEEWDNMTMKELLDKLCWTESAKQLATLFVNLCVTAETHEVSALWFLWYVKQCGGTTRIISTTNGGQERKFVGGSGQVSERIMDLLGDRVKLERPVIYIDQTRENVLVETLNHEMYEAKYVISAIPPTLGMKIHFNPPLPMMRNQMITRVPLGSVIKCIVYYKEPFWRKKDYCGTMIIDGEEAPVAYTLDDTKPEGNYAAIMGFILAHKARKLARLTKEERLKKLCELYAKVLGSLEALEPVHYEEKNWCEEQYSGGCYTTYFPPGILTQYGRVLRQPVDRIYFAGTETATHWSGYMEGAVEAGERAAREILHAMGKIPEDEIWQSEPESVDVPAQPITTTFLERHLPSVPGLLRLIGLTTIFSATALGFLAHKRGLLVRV
# Experimental: as §1
IC50 [2] [µM],IC50 [3] [µM],IC50 [4] [µM],IC50 [5] [µM],Compound,hepatotoxicity in humans [1]
–,–,–,–,"O=C(NCc1ccc(-c2cc[nH]c(=O)c2)cc1)c1c(Cl)cccc1Cl [2,6-dichloro-N-[4-(2-oxo-1,2-dihydro-pyridin-4-yl)-benzyl]-benzamide]",high levels of hepatotoxicity
> 10,0.089,> 10,> 10,"Cc1cccc(Cl)c1C(=O)NCc1cnc(N2CCNC(=O)C2)nc1 [(1a), 2-Chloro-6-methyl-N-((2-(3-oxopiperazin-1-yl)pyrimidin-5-yl)methyl)benzamide]",–
> 10,0.264,> 10,> 10,"O=C1CN(c2ncc(CNC(=O)c3ccccc3Cl)cn2)CCN1 [(1b), 2-Chloro-N-((2-(3-oxopiperazin-1-yl)pyrimidin-5-yl)methyl)benzamide]",–
> 10,0.088,> 10,> 10,"Cc1nccc(Cl)c1C(=O)NCc1cnc(N2CCNC(=O)C2)nc1 [(1c), 4-Chloro-2-methyl-N-((2-(3-oxopiperazin-1-yl)pyrimidin-5-yl)methyl)nicotinamide]",–
